Test results reported in article PMC7586456 (ACS Pharmacology & Translational Science, 2020).
Like-named read-outs stand apart in the source and are kept apart here.

Experiments:
[1] = system: MERS-S PP; type: cell-based, MERS-CoV
[2] = system: VSV-G PP; assay: microbe, parasite or virus in culture; type: cell-based, Vesicular stomatitis virus; conditions: for EC50: Vesicular stomatitis virus, Huh-7, read-out: VSV-G PP in Huh7 EC50
[3] = system: SARS-S PP; type: cell-based, SARS-CoV
[4] = system: MERS-S PP; type: cell-based, MERS-CoV; remark: listed apart in the source
[5] = system: Huh7 cells; conditions: human
[6] = system: SARS CoV-2 (USA_WA1/2020)
[7] = system: Vero E6 cells
[8] = in vitro; conditions: human
[9] = system: SARS-S PP; type: cell-based, SARS-CoV; remark: listed apart in the source
[10] = system: VSV-G PP; type: cell-based, Vesicular stomatitis virus
[11] = system: Vero E6 cells; remark: listed apart in the source
[12] = system: SARS CoV-2 (USA_WA1/2020); conditions: cited from earlier work

Molecule | MERS-S PP in Huh7 efficacy [1] | VSV-G PP in Huh7 efficacy [2] | EC50 [2] | Huh7 cytotoxicity cytotox [5] | safety ratio (CC50 of Vero E6 CPE counter screen divided by EC50 of SARS-CoV-2 CPE assay) ([6]; African green monkey) | Vero E6 cytotoxicity cytotox (SARS-CoV-2 CPE counter screen) ([7]; African green monkey) | CC50 [8] | SARS-S PP in Vero E6 efficacy [9] | VSV-G PP in Vero E6 efficacy [10] | Vero E6 cytotoxicity cytotox ([11]; African green monkey) | further results
CCN1CCN(Cc2ccc(Nc3ncc(F)c(-c4cc(F)c5nc(C)n(C(C)C)c5c4)n3)nc2)CC1 [abemaciclib] | 82.3% | 27.1% | > 57.5 µM | 90.0% | 6.3 | 34.0% | 17.1 µM | – | – | – | selectivity toward SARS-S-based entry compared with VSV-G in Calu-3 cells [3]: > 10 fold; selectivity toward MERS-S-based entry compared with VSV-G in Calu-3 cells [4]: > 10 fold
COc1ccc2cc1Oc1ccc(cc1)C[C@H]1c3c(cc4c(c3Oc3cc5c(cc3OC)CCN(C)[C@@H]5C2)OCO4)CCN1C [cepharanthine] | 108.4% | 115.3% | 24.2 µM | 88.9% | – | 99.0% | 38.3 µM | 90.9% | 76.9% | 106.2% | SARS-CoV-2 CPE efficacy [6]: 92.5%; block of SARS-CoV-2 induced CPE in Vero E6 cells (in words) [12]: able to block SARS-CoV-2 induced CPE in Vero E6 cells, only when added during the viral entry time period, and not the postentry period
CN(C)CCCN1c2ccccc2CCc2ccc(Cl)cc21 [clomipramine] | – | – | – | – | – | – | – | – | – | – | activity against SARS-S PP entry in the primary screen (in words) [9]: active against SARS-S PP entry; cytotoxicity in the primary screen (in words) [11]: noncytotoxic; protection against SARS-CoV-2 CPE (in words) [12]: protect against SARS-CoV-2 CPE
COc1c(OCCCN2CCOCC2)ccc2c1N=C(NC(=O)c1cnc(N)nc1)N1CCN=C21 [copanlisib] | 65.8% | 6.2% | > 57.5 µM | 13.6% | – | 42.4% | > 57.5 µM | – | – | – | SARS-CoV-2 CPE efficacy [6]: 0.0%
CC1=C[C@]23C(=O)[C@@H](C=C(CO)[C@@H](O)[C@]2(O)[C@H]1O)[C@H]1[C@@H](C[C@H]3C)C1(C)C [ingenol] | – | – | – | – | 355.7 | 0.0% | – | 93.3% | 76.4% | –4.0% | selectivity ratio (EC50 of VSV-G PP entry divided by SARS-S PP entry EC50) [9]: 12.0; activity in MERS-S PP entry in Huh7 cells (in words) [1]: not in MERS-S entry in Huh7 cells
C=CC(=O)Nc1cc(Nc2nccc(-c3cn(C)c4ccccc34)n2)c(OC)cc1N(C)CCN(C)C [osimertinib] | – | – | – | – | 2.5 | 99.7% | – | 117.5% | 118.4% | 99.6% | selectivity ratio (EC50 of VSV-G PP entry divided by SARS-S PP entry EC50) [9]: 15.8
CC(CN(C)C)CN1c2ccccc2CCc2ccccc21 (stereo not drawn) [trimipramine] | – | – | – | – | 1.0 | 16.6% | – | 90.9% | 29.2% | 16.6% | entry inhibition activity in Calu-3 cells (in words) [3]: not confirmed
colforsin [NKH477] | – | – | – | – | – | – | – | 71.4% | 0% | – | EC50 ([9]; read-out: SARS-S PP in Vero E6 EC50): 1.36 µM; EC50 ([10]; read-out: VSV-G PP in Vero E6 EC50): > 57.5 µM; activity in MERS-S PP entry in Huh7 cells (in words) [1]: not in MERS-S entry in Huh7 cells; CC50 [11]: > 57.5 µM; Vero E6 cytotoxicity cytotox [11]: 0%; safety ratio (CC50 of Vero E6 CPE counter screen divided by EC50 of SARS-CoV-2 CPE assay) [6]: 1.1; EC50 ([6]; read-out: SARS-CoV-2 CPE EC50): 23.1 µM; CC50 [7]: 25.2 µM; Vero E6 cytotoxicity cytotox (SARS-CoV-2 CPE counter screen) [7]: 42.0%
